This note sets out measurements from publication PMC13470012, “Long-term inhibition of lysosomal glucocerebrosidase activity promotes GPX4 stability and inhibits ferroptosis in dopaminergic neurons” (Cell Death & Disease, 2026).

Usually IC50 stands for the concentration that gives 50% inhibition. Low readings indicate inhibition by little substance, high ones a need for much substance.

The test has as its target T1, lysosomal glucocerebrosidase (Homo sapiens, UniProt P04062).
T1 construct: gene GBA1
T1 sequence (P04062 40-536): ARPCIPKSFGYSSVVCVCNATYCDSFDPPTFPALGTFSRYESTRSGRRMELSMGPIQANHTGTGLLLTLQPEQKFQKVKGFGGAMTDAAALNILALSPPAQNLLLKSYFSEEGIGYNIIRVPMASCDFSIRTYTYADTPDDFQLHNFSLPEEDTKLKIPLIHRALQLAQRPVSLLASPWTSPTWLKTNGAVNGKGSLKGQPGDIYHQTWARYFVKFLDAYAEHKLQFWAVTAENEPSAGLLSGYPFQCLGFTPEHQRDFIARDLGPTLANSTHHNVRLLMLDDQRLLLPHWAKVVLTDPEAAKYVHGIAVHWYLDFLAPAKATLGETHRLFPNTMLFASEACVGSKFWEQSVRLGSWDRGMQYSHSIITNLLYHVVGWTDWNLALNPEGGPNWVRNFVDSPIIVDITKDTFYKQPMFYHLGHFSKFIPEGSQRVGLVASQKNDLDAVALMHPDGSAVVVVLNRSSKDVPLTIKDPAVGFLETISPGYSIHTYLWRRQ
Put plainly: fluorogenic (4-methylumbelliferone) glucocerebrosidase activity assay in lysates of CBE-treated human LUHMES cells, […] h dose range. In kind it is cell-based.

Consider `O[C@H]1[C@H](O)[C@@H](O)[C@@H]2O[C@@H]2[C@@H]1O` [conduritol-beta-epoxide], for which the IC50 was ~9 µM.
